Data: US8173592B1, “Method for a programmed controlled ovarian stimulation protocol” (Zentaris IVF GmbH, priority 1999, dated 2012)
Non-standard residues stand in square brackets, D forms with d. Residues, ends and D or L forms follow the SMILES beside them. dPhe(4-Cl) = N[C@H](Cc1ccc(Cl)cc1)C(=O)O; d2Nal = N[C@H](Cc1ccc2ccccc2c1)C(=O)O; dCit = NC(=O)NCCC[C@@H](N)C(=O)O; d3Pal = N[C@H](Cc1cccnc1)C(=O)O

Key:
[1] = system: women undergoing controlled ovarian stimulation; assay: Controlled ovarian stimulation (COS) cycles programmed by oral contraceptives, with Gonal-F stimulation and Cetrotide 0.25 mg daily, in patients; format: in vivo
Protocol: A total of 30 patients, 15 from each German study center was enrolled for one treatment cycle. In the pre-treatment cycle, each patient received monophasic oral contraceptive(OC) pills containing 30 μg Estradiol in combination with levonogastrel. […] Cetrotide® 0.25 mg was given daily from the evening of stimulation day (s-day) 5/morning of s-day 6 until the day before hCG administration. On the basis of the ultrasound scans performed on s-day 9/10(s-day 9/10), and a calculation of follicular growth of 2 mm per day, hCG was administered to trigger ovulation (when >2 follicle's≧18 mm) were visualized.
Safety end-points were indicated and severity of adverse events.

[2] = system: luteal regression / start of menses; conditions: 1 mg given in the luteal phase; previous use; cited from earlier work
[3] = last day of Cetrotide administration, 17 patients

## CC(=O)N[C@H](Cc1ccc2ccccc2c1)C(=O)N[C@H](Cc1ccc(Cl)cc1)C(=O)N[C@H](Cc1cccnc1)C(=O)N[C@@H](CO)C(=O)N[C@@H](Cc1ccc(O)cc1)C(=O)N[C@H](CCCNC(N)=O)C(=O)N[C@@H](CC(C)C)C(=O)N[C@@H](CCCNC(=N)N)C(=O)N1CCC[C@H]1C(=O)N[C@H](C)C(N)=O [Cetrotide, cetrorelix] (Ac-[d2Nal][dPhe(4-Cl)][d3Pal]SY[dCit]LRP[dA]-NH2)
[1]; 17 patients
  adverse events: no cases of OHSS nor adverse events
  cases of OHSS: no cases
  difference between predicted and actual day of OPU, average: 2 days
  mean number of embryos transferred: 2
  mean number of oocytes retrieved: 8.8
  patients receiving hCG who had ovum pick up and embryo transfer: All 17 women who received hCG had ovum pick up and embryo transfer
  pregnancy rate per attempt/cycle: 41%
[1]; conclusion
  efficacy in OC programmed cycles: appears to be effective
  tolerability in OC programmed cycles: well tolerated
[1]; [3]
  mean number of follicles with diameter 15-17 mm: 4.9
  mean number of follicles with diameter ≦14 mm: 2.7
  mean number of follicles with diameter ≧18 mm: 2.7
[1]; preliminary results from 17 patients, stimulation day 9/10, Cetrotide 0.25 mg daily
  mean number of follicles ≧18 mm on s-day 9/10: 2.2
[2]
  start of menses after administration (luteal regression obtained): 2 to 4 days
